From patent EP4810052A2, “HCRHR2 SELECTIVE POLYPEPTIDES” (Gubra A/S, priority 2023, dated 2026)
Like-named read-outs stand apart in the source and are kept apart here. Starred links: 1 amine or outer side, 2 acyl side, 3 side chain; linkers in the order of their positions; H or OH if unused. Non-standard residues stand in square brackets, D forms with d. Residues, ends and D or L forms follow the SMILES beside them. Groups on a side chain read outwards from the residue. *: point of attachment. C20 diacid = O=C(O)CCCCCCCCCCCCCCCCCCC(=O)*; γGlu = O=C(O)[C@H](CCC(=O)[*:2])N[*:1]; NMeI = CC[C@H](C)[C@H](NC)C(=O)O; Nle = CCCC[C@H](N)C(=O)O; AEEA = NCCOCCOCC(=O)O; Aib = CC(C)(N)C(=O)O

Assays:
hCRHR1 = biological target: T1, hCRHR1 (Homo sapiens, UniProt P34998); assay: HTRF cAMP assay, determination of hCRHR1 potency (peptide libraries 5 conc., purified peptides 11 conc.); type: cell-based; details: read-out: hCRHR1 pEC50 (converted)
T1 sequence (P34998 24-415): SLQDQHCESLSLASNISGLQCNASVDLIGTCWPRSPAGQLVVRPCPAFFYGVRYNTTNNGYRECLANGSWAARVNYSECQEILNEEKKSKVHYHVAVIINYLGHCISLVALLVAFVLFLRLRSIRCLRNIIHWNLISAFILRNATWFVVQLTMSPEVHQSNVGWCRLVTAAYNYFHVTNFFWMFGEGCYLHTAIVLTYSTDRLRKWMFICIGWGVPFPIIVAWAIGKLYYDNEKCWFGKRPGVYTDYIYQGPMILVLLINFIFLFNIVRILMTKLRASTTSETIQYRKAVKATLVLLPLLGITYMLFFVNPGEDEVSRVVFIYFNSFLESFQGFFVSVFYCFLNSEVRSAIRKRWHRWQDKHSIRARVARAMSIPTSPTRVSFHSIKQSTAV
Procedure, shortened: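 Cellular cAMP was read by time-resolved FRET between d2-labelled cAMP and cryptate anti-cAMP antibody. The cells were freshly thawed suspension CHO-K1 cells stably expressing human CRHR1.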

hCRHR2 = biological target: T2, hCRHR2 (Homo sapiens, UniProt Q13324); assay: HTRF cAMP assay, determination of hCRHR2 potency (peptide libraries 5 conc., purified peptides 11 conc.); type: cell-based; details: read-out: hCRHR2 pEC50 (converted)
T2 sequence (Q13324 1-411): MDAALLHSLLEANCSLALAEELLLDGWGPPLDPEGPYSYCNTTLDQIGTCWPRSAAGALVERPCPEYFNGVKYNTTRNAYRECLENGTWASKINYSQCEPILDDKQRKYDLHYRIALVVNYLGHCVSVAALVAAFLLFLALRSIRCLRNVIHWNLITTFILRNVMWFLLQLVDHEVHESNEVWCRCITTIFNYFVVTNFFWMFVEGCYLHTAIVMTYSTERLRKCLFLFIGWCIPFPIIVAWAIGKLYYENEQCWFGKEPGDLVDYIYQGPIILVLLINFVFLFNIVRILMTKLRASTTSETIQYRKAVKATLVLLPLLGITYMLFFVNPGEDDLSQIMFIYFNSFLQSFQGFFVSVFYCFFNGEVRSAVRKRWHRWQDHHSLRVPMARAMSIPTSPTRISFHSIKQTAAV
Procedure, shortened: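 Cells: CHO-K1/hCRHR2 stable clone, suspension, freshly thawed. Readout: competitive TR-FRET, anti-cAMP cryptate vs cAMP-d2. Analysis: sigmoid variable-slope nonlinear regression → EC50.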

[1] = Table 3, matched molecular pairs X^38 L vs Nle, peptide library of Example 4
[2] = Table 4, library peptides having X^38 = Nle

Row | Structure (SMILES) | EC50 (hCRHR1; [1]) | EC50 (hCRHR2; [1]) | EC50 (hCRHR1; [2]) | EC50 (hCRHR2; [2])
1 | CC[C@H](C)[C@H](N)C(=O)N[C@H](C(=O)N[C@@H](CC(C)C)C(=O)N[C@@H](CO)C(=O)N[C@@H](CC(C)C)C(=O)N[C@@H](CC(=O)O)C(=O)N[C@H](C(=O)N1CCC[C@H]1C(=O)N[C@H](C(=O)NCC(=O)N[C@@H](CC(C)C)C(=O)N[C@@H](CC(C)C)C(=O)N[C@@H](CCC(N)=O)C(=O)N[C@H](C(=O)N[C@@H](CC(C)C)C(=O)N[C@@H](CC(C)C)C(=O)N[C@@H](CCC(=O)O)C(=O)N[C@@H](CCC(N)=O)C(=O)N[C@@H](C)C(=O)N[C@@H](CCCNC(=N)N)C(=O)N[C@@H](C)C(=O)N[C@@H](CCC(=O)O)C(=O)N[C@@H](CO)C(=O)N[C@@H](C)C(=O)N[C@@H](CCCNC(=N)N)C(=O)N[C@@H](CCC(=O)O)C(=O)N[C@@H](CCCNC(=N)N)C(=O)N[C@@H](C)C(=O)N[C@@H](CCCCNC(=O)COCCOCCNC(=O)COCCOCCNC(=O)CC[C@H](NC(=O)CC[C@H](NC(=O)CCCCCCCCCCCCCCCCCCC(=O)O)C(=O)O)C(=O)O)C(=O)N[C@H](C(=O)N[C@@H](CC(N)=O)C(=O)N[C@@H](C)C(=O)N[C@@H](CCC(=O)O)C(=O)N[C@H](C(=O)N[C@@H](CC(C)C)C(=O)N[C@@H](C)C(=O)N[C@@H](CCC(=O)O)C(=O)N[C@H](C(N)=O)[C@@H](C)CC)[C@@H](C)CC)[C@@H](C)O)[C@@H](C)CC)[C@@H](C)CC)C(C)C)C(C)C [SEQ ID NO: 21] (H-IVLSLDVPIGLLQILLEQARAESARERAK([AEEA-AEEA-γGlu-γGlu-C20 diacid])TNAEILAEI-NH2) | 63.1 µM | 0.794 nM |  | 
2 | CCCC[C@H](NC(=O)[C@@H](NC(=O)[C@H](CCC(=O)O)NC(=O)[C@H](C)NC(=O)[C@H](CC(N)=O)NC(=O)C(C)(C)NC(=O)[C@H](CCCCNC(=O)COCCOCCNC(=O)COCCOCCNC(=O)CC[C@H](NC(=O)CC[C@H](NC(=O)CCCCCCCCCCCCCCCCCCC(=O)O)C(=O)O)C(=O)O)NC(=O)[C@H](C)NC(=O)[C@H](CCC(N)=O)NC(=O)[C@H](CCC(=O)O)NC(=O)[C@H](CCCNC(=N)N)NC(=O)[C@H](C)NC(=O)[C@H](C)NC(=O)[C@H](CCCNC(=N)N)NC(=O)[C@H](C)NC(=O)[C@H](CCCNC(=N)N)NC(=O)[C@H](C)NC(=O)[C@H](CCC(N)=O)NC(=O)[C@H](CCCCN)NC(=O)[C@H](CC(C)C)NC(=O)[C@H](CC(C)C)NC(=O)[C@@H](NC(=O)[C@H](CCC(N)=O)NC(=O)[C@H](CC(C)C)NC(=O)[C@H](CC(C)C)NC(=O)CNC(=O)[C@@H](NC(=O)[C@@H]1CCCN1C(=O)[C@@H](NC(=O)[C@H](CC(=O)O)NC(=O)[C@H](CC(C)C)NC(=O)[C@H](CO)NC(=O)[C@H](CC(C)C)NC(=O)[C@@H](NC(=O)[C@@H](NC)[C@@H](C)CC)C(C)C)C(C)C)[C@@H](C)CC)[C@@H](C)CC)[C@@H](C)CC)C(=O)N[C@@H](C)C(=O)N[C@@H](CCC(=O)O)C(=O)N[C@H](C(N)=O)C(C)C [compound 233] (H-[NMeI]VLSLDVPIGLLQILLKQARARAAREQAK([AEEA-AEEA-γGlu-γGlu-C20 diacid])[Aib]NAEI[Nle]AEV-NH2) |  |  | 3.16 µM | 0.0398 nM
